In patent publication US9907760B2 (LIBRAGEN, priority 2010, dated 2018):
Marks after values point to notes of the source that are not given here.

Columns and labels:
normal human fibroblasts [1] = assay: Proliferation of normal human fibroblasts treated with supernatant of treated keratinocytes (Cell Proliferation ELISA, BrdU); format: cell-based; conditions: 1 μM on keratinocytes 48 hrs, supernatant on fibroblasts 48 hrs
Description: This experiment evaluated the proliferation of normal human fibroblasts (dermal primocultures) after 48 hours of treatment with supernatant transferred from human keratinocytes.
The “Cell Proliferation ELISA, BrdU” test quantifies cell proliferation by measuring incorporation of bromodeoxyuridine (BrdU) during DNA synthesis followed by luminescence detection.
Cells were placed in the presence of the treatment for a specified time (incubator at 37° C., 5% CO2). The pyrimidine analogue 5-bromo-2′-deoxyuridine (BrdU) was then added and the cells were further incubated (37° C., 5% CO2) for a minimum of 2 hours, during which time BrdU is incorporated in place of thymidine into the DNA of proliferating cells.
The culture medium was removed, then the cells were fixed and the DNA denatured at the same time (antibody accessibility). An anti-BrdU-POD (peroxidase) antibody was added; this antibody binds to BrdU in newly synthesized DNA. The immune complex was then detected by addition of luminol substrate with measurement of luminescence (Genios, Tecan).
NHF were seeded at a density of 5,000 cells/well in E-199 culture medium (Gibco® Invitrogen) in a 96-well Optilux white plate (BD Falcon 353947). The plate was placed in a humid incubator (37° C., 5% CO2) for 24 hours.
The different products at the respective concentrations (diluted in KSFM culture medium, 600 μl) were contacted with NHK cells for 48 hours. Control cells were left untreated. Each treatment conditions was evaluated on three wells of NHK cells.
After 48 hours, a fraction of the NHK cell supernatant was removed. Each sample of supernatant (2 times 100 μl) from a well on the NHK plate (24 wells) was transferred to two wells in the NHF plate already containing 100 μl of E-199 medium per well. […]
Cell proliferation was quantified by the method described in the “Cell Proliferation ELISA, BrdU” kit (Roche Applied Science No. 11669915001). This is an immunological assay with luminescence detection (Genios, Tecan).
The means of the luminescence values (RLU/s) of six wells with the same treatment condition were determined. […] Proliferation of treated cells was expressed as a percentage of the control(untreated cells−100%)(OD treated/OD control×100).

normal human fibroblasts [2] = assay: Hyaluronic acid production by normal human fibroblasts treated with supernatant of treated keratinocytes (HA-ELISA); format: cell-based; conditions: supernatant on fibroblasts 48 hrs
Description: Normal human dermal fibroblasts were cultured to confluence. Cells were treated for 48 hours with supernatants of normal human keratinocytes previously grown in the presence of the test products. The fibroblast supernatants, containing hyaluronic acid, were collected and assayed immediately. Hyaluronic acid was quantified with an ELISA microtiter plate. Protein content was determined for each well of the microtiter plate.
(§1) Primocultures of normal human keratinocytes (NHK) were obtained from cells isolated from skin specimens from plastic surgery.
(§2) NHK were seeded at a density of 130,000 cells/well in specific KSFM culture medium (Gibco®, Invitrogen) in a 24-well plate. The plate was placed in a humid incubator (37° C., 5% CO2) for 24 hours.
Primocultures of normal human fibroblasts (NHF) were obtained from cells isolated from skin specimens from plastic surgery.
NHF were seeded at a density of 90,000 cells/well in E-199 culture medium supplemented with 0.5% FCS (Gibco® Invitrogen) in a 24-well plate. The plate was placed in a humid incubator (37° C., 5% CO2) for 24 hours.
The two cell types—NHK and NHF—were plated 48 hours apart.
The different products at the respective concentrations (diluted in KSFM medium, 600 μl) were contacted with NHK cells for 48 hours. Untreated cells were used as the control condition. Two plates were used to separately test NAG, and NAG+vitamin A propionate, on the one hand, and NAG6P, and NAG6P+vitamin A propionate, on the other hand.
(§3) Each treatment condition was evaluated on three wells of NHK cells.
After 48 hours, a fraction of NHK cell supernatant (300 μl/well) was removed and transferred well for well into NHF cell supernatants (300 μl E-199/well−fresh medium without FCS).
This gave a final volume of 600 μl/well (50:50 ratio of KSFM/E-199 medium) which remained on the NHF cells for 48 hours.
After 48 hours of treatment, the NHF cell supernatant was collected and centrifuged.
Hyaluronic acid was assayed in the cell supernatants as described in example 1.
(§4) The assay was performed in duplicate for each well.
(§5) Optical densities (OD) measured on each sample were plotted on a graph (specific standard curve in the kit). The hyaluronic acid concentration was expressed in ng/ml.
(§6) The amount of hyaluronic acid released by the cells was determined for each well and for each treatment condition, relative to the cell content expressed as μg of protein. Thus, the final result was expressed as ng/ml of hyaluronic acid per μg of protein.
(§7) A mean value was calculated for wells treated with the same concentration of test product. This mean was compared with the mean of the control wells (Student t test−comparison of means−significant difference at 95% if p<0.05* and at 99% if p<0.01**).
(§8) The percent stimulation induced by the test products was determined by comparing the mean values of the control and treatment conditions: % Stimulation=(Treated−Control)/Control

normal human fibroblasts [3] = assay: Procollagen 1 production by normal human fibroblasts treated with supernatant of treated keratinocytes (EIA); format: cell-based; conditions: supernatant on fibroblasts 48 hrs
Description: This experiment was carried out according to the method described in example 3. Fibroblast supernatants, containing procollagen 1, were collected and assayed immediately for procollagen 1 by means of an EIA microtiter plate.
After 48 hours of treatment, NHF cell supernatants were collected and centrifuged.
Procollagen 1 was assayed in the cell supernatants by the method described in the Procollagen Type 1 C-peptide EIA kit (MK101, Takara). This is an EIA assay with spectrophotometric detection at 450 nm (Safire, Tecan).
Duplicate determinations were carried out for two wells whereas the third well was assayed only once.
Optical densities (OD) measured on each sample were plotted on a graph (specific standard curve in the kit). The procollagen 1 concentration was expressed in ng/ml.
As in example 3, the protein content was determined in the cell pellets of the supernatants for which procollagen 1 was assayed.
as §7, with “Thus, the final result was expressed as ng/ml of procollagen 1 per μg of protein. A” for “A”, “means, significant” for “means−significant”
The percent stimulation produced by the test products was determined by comparing the mean values of the control and treatment conditions: % Stimulation=(Treated−Control)/Control

[4] = system: normal human keratinocytes; assay: Hyaluronic acid production by normal human keratinocytes (HA-ELISA of supernatant); format: cell-based; conditions: 1 μM
Description: Normal human keratinocytes were cultured to confluence. Cells were treated with the test products for 48 hours. The supernatants, containing hyaluronic acid, were collected and assayed immediately. Hyaluronic acid was quantified with an ELISA microtiter plate.
as §1, §2
The different products at the respective concentrations (diluted in KSFM medium, 600 μl) were contacted with the cells for 48 hours. Untreated cells were used as the control condition.
as §3
After 24 hours of treatment, an intermediate sample of […] of supernatant was removed from each well and the plate returned to the incubator (37° C., 5% CO2).
After 48 hours of treatment, the remaining supernatant (≈350 μA) was collected and centrifuged.
Cell supernatants were assayed according to the method described in the Hyaluronan Enzyme-Linked Immunosorbent Assay kit (HA-ELISA, Echelon Biosciences Inc.). This is an ELISA assay with spectrophotometric detection at 405 nm (Safire, Tecan).
as §4, §5, §6
A mean value was calculated for wells treated with the same concentration of test product. This mean was compared with the mean of the control wells (Student t test−comparison of means−significant difference at 95% if p<0.05* and at 99% if p<0.01*).
as §8
The vitamin A propionate was dissolved in DMSO.

[5] = system: patients with osteoarthritis; conditions: three-year trial, 212 patients with osteoarthritis, versus slight worsening in placebo group; cited from earlier work
[6] = 1 μM on keratinocytes 48 hrs, NAG6P plate (Table 6)
[7] = 1 μM on keratinocytes 48 hrs, NAG plate (Table 5)
[8] = 1 μM on keratinocytes 48 hrs, NAG6P plate (Table 8)
[9] = 1 μM on keratinocytes 48 hrs, NAG plate (Table 7)
[10] = 5 mM on keratinocytes 48 hrs, vs Control
[11] = 10 mM on keratinocytes 48 hrs, vs Control

**Q.** With CCC(=O)OC/C=C(C)/C=C/C=C(C)/C=C/C1=C(C)CCCC1(C)C [Vit. A propionate, vitamin A propionate] as the compound, how does the RLU (normal human fibroblasts [1]) read?
**A.** The RLU was 4640 ± 267 RLU.

**Q.** What about the “% Proliferation” value (normal human fibroblasts [1]; DMSO control = 100%) of the same compound?
**A.** The value was 109%**.

**Q.** What about the “Hyaluronic acid” value (normal human fibroblasts [2]; [6]) of the same compound?
**A.** The value was 3358.8 ± 615.3 ng/mL.

**Q.** And the “Hyaluronic acid (ng/ml/μg prot.)” value (normal human fibroblasts [2]; [6])?
**A.** The value was 389.2 ± 108.3 ng/ml/μg prot.

**Q.** And the “% stimulation of hyaluronic acid synthesis” value (normal human fibroblasts [2]; 1 μM on keratinocytes 48 hrs, NAG6P plate (Table 6), vs DMSO control)?
**A.** The value was 7%.

**Q.** And the “Hyaluronic acid” value (normal human fibroblasts [2]; [7])?
**A.** Its value is 3645.6 ± 667.8 ng/mL.

**Q.** What about the “Hyaluronic acid (ng/ml/μg prot.)” value (normal human fibroblasts [2]; [7]) of the same compound?
**A.** Its value is 316.6 ± 68 ng/ml/μg prot.

**Q.** And the “% stimulation of hyaluronic acid synthesis” value (normal human fibroblasts [2]; 1 μM on keratinocytes 48 hrs, NAG plate (Table 5), vs DMSO control)?
**A.** The value was −18%.

**Q.** What about the “Procollagen 1” value (normal human fibroblasts [3]; [8]) of the same compound?
**A.** Its value is 704.4 ± 38.6 ng/mL.

**Q.** What about the “Procollagen 1 (ng/ml/μg prot.)” value (normal human fibroblasts [3]; [8]) of the same compound?
**A.** The value was 81.9 ± 13.0 ng/ml/μg prot.

**Q.** What about the “% stimulation (procollagen 1)” value (normal human fibroblasts [3]; 1 μM on keratinocytes 48 hrs, NAG6P plate (Table 8), vs DMSO control) of the same compound?
**A.** The value was 5%.

**Q.** And the “Procollagen 1” value (normal human fibroblasts [3]; [9])?
**A.** Its value is 706.1 ± 73.8 ng/mL.

**Q.** And the “Procollagen 1 (ng/ml/μg prot.)” value (normal human fibroblasts [3]; [9])?
**A.** The value was 64.3 ± 20.1 ng/ml/μg prot.

**Q.** And the “% stimulation (procollagen 1)” value (normal human fibroblasts [3]; 1 μM on keratinocytes 48 hrs, NAG plate (Table 7), vs DMSO control)?
**A.** Its value is 15%.

**Q.** What about the “% stimulation of hyaluronic acid synthesis” value ([4]; 24 hrs) of the same compound?
**A.** The value was 34%*.

**Q.** And the “Hyaluronic acid” value ([4]; 24 hrs)?
**A.** The value was 1056 ± 186.5 ng/mL.

**Q.** What about the “% stimulation of hyaluronic acid synthesis” value ([4]; 24 hrs, listed as vitamin A propionate) of the same compound?
**A.** The value was 34%.

**Q.** What about the “Hyaluronic acid” value ([4]; 48 hrs) of the same compound?
**A.** Its value is 1944.8 ± 393.2 ng/mL.

**Q.** What about the “Hyaluronic acid (ng/ml/μg prot.)” value ([4]; 48 hrs) of the same compound?
**A.** The value was 137.1 ± 32.2 ng/ml/μg prot.

**Q.** And the “% stimulation of hyaluronic acid synthesis” value ([4]; 48 hrs, vs DMSO control)?
**A.** Its value is 105%*.

**Q.** And the “% stimulation of hyaluronic acid synthesis” value ([4]; 48 hrs, vs DMSO control, listed as vitamin A propionate)?
**A.** The value was 105%.

**Q.** Which improvement in symptoms [5] does the source give for N[C@H]1C(O)O[C@H](CO)[C@@H](O)[C@@H]1O (stereo partly drawn) [glucosamine, D-glucosamine] here?
**A.** The improvement in symptoms was 20-25%.

**Q.** With CC(=O)N[C@H]1C(O)O[C@H](CO)[C@@H](O)[C@@H]1O (stereo partly shown) [NAG, N-acetylglucosamine] as the compound, how does the “Hyaluronic acid” value (normal human fibroblasts [2]; 5 mM on keratinocytes 48 hrs) read?
**A.** The value was 4277.6 ± 488 ng/mL.

**Q.** And the “Hyaluronic acid (ng/ml/μg prot.)” value (normal human fibroblasts [2]; 5 mM on keratinocytes 48 hrs)?
**A.** The value was 358.9 ± 81.8 ng/ml/μg prot.

**Q.** And the “% stimulation of hyaluronic acid synthesis” value (normal human fibroblasts [2]; [10])?
**A.** Its value is −17%.

**Q.** And the “Hyaluronic acid” value (normal human fibroblasts [2]; 10 mM on keratinocytes 48 hrs)?
**A.** Its value is 4056.1 ± 315.5 ng/mL.

**Q.** What about the “Hyaluronic acid (ng/ml/μg prot.)” value (normal human fibroblasts [2]; 10 mM on keratinocytes 48 hrs) of the same compound?
**A.** Its value is 258.8 ± 8.1 ng/ml/μg prot.

**Q.** What about the “% stimulation of hyaluronic acid synthesis” value (normal human fibroblasts [2]; [11]) of the same compound?
**A.** Its value is −40%**.

**Q.** And the “Procollagen 1” value (normal human fibroblasts [3]; 5 mM on keratinocytes 48 hrs)?
**A.** Its value is 685.9 ± 38.6 ng/mL.

**Q.** What about the “Procollagen 1 (ng/ml/μg prot.)” value (normal human fibroblasts [3]; 5 mM on keratinocytes 48 hrs) of the same compound?
**A.** Its value is 57.3 ± 10.5 ng/ml/μg prot.

**Q.** And the “% stimulation (procollagen 1)” value (normal human fibroblasts [3]; [10])?
**A.** Its value is −37%*.

**Q.** And the “Procollagen 1” value (normal human fibroblasts [3]; 10 mM on keratinocytes 48 hrs)?
**A.** Its value is 700.9 ± 32.7 ng/mL.

**Q.** And the “Procollagen 1 (ng/ml/μg prot.)” value (normal human fibroblasts [3]; 10 mM on keratinocytes 48 hrs)?
**A.** The value was 44.9 ± 1.3 ng/ml/μg prot.

**Q.** And the “% stimulation (procollagen 1)” value (normal human fibroblasts [3]; [11])?
**A.** Its value is −51%**.
